Source: patent US20090142370A1, “Method for preventing skin-cellular aging by using green algae extract and cosmetic composition containing green algae extract” (priority 2007, published 2009)

Tests used:
Assay type in all cases: cell-based
MMP [1] = test: PMA-induced MMP production in fibroblasts, quantified (FIG. 1); conditions: 5-hour incubation, control about 25, PMA alone about 70 ng/mL
Method: (§1) The experiments are conducted under two kinds of conditions, wherein one uses phorbol 12-myristate 13-acetate (PMA) to induce skin-cells to produce MMP while the other uses UVB to induce skin-cells to produce MMP and the inhibitory effects of the green algae extract of the present invention on MMP produced under both conditions are tested.
As known by those skilled in the art, PMA is an activator of protein kinase C (PKC) in fibroblasts, and PKC is an activator of MMP. Further, unduly activated MMP can break collagens as well as elastins in fibroblasts and in turn lead to aged skin. In the experiment shown in FIG. 1, Rectangle (1) belongs to a control group; Rectangle (2) belongs to a comparison group; and Rectangles (3), (4), (5) and (6) belong to an experimental group. A 5-hour incubation is conducted in each of the groups.

MMP [2] = test: UVB-induced MMP in fibroblasts, quantified (FIG. 5); conditions: no UV about 3.5, UV alone about 6.0 ng/mL
Method: as §1

MMP [3] = test: PMA-induced MMP in fibroblasts, Western blotting (FIG. 2); conditions: 100 nM PMA + 0.4 nM GM
Description: The images in the upper picture represent MMP expressions while the images in the lower picture are provided as a house keeping gene expressed protein.

TIMP1 = test: PMA-induced gene expression in fibroblasts, RT-PCR (FIG. 4); conditions: 100 nM PMA + 0.4 nM GM
Description: (§2) The […] inhibitor proteins TIMP1 and TIMP3 exist in fibroblasts to counterbalance metalloproteinases MMP1 and MMP3.

TIMP3 = test: as above; conditions: 100 nM PMA + 0.4 nM GM
Description: as §2

MMP3 = test: as above; conditions: 100 nM PMA + 0.4 nM GM
Description: as §2

O=C1O[C@H]([C@@H](O)CO)C(O)=C1O [Vitamin C]
average content of MMP (MMP [1]; 100 nM PMA + 0.15 nM Vitamin C): about 60 ng/mL | average content of MMP (MMP [2]; 0.15 mM Vitamin C added before 1.5 hours UV): 9.0 ng/mL

CNC(=O)[C@H](Cc1c[nH]c2ccccc12)NC(=O)[C@@H](CC(=O)NO)CC(C)C [GM]
MMP activity (Western blot) compared with PMA alone (MMP [3]): slightly inhibits | average content of MMP (MMP [1]; 100 nM PMA + 0.4 nM GM): about 50 ng/mL | TIMP1 genetic expression (RT-PCR) compared with PMA alone (TIMP1): fails to significantly enhance | TIMP3 genetic expression (RT-PCR) compared with PMA alone (TIMP3): fails to significantly enhance | MMP3 mRNA expression (RT-PCR) compared with PMA alone (MMP3): less

Vitamin E
average content of MMP (MMP [2]; 25 uM Vitamin E added before 1.5 hours UV): 6.0 ng/mL
